16 compounds from ChEMBL document CHEMBL5107956, “Natural products from mangrove sediments-derived microbes: Structural diversity, bioactivities, biosynthesis, and total synthesis” (Eur J Med Chem, 2022) can be followed below.

One assay concerns Meloidogyne javanica. The assay can be described thus: Nematicidal activity against Meloidogyne javanica. Type of assay: functional. The note with it: read-out: LD50 (the source's name).
The subject of a further assay is Meloidogyne incognita. The assay can be described thus: Nematicidal activity against Meloidogyne incognita. Type of assay: functional. The note with it: read-out: LD50 (the source's name).
Another assay concerns HeLa. The experiment in a line: Cytotoxicity against human HeLa cells assessed as cell growth inhibition measured after 48 hrs by WST-8 assay. Type of assay: functional, cell-based.
Assay [1] can be described thus: Cytotoxicity against human ACC-MESO-1 cells assessed as cell growth inhibition measured after 48 hrs by WST-8 assay. Type of assay: functional, cell-based. The note with it: ACC-MESO-1, 48 h. A general note: Tetrazolium assays rely on reduction of a dye to a coloured formazan, in cell work by metabolically active cells.
A further assay concerns SMMC-7721. The experiment in a line: Antiproliferative activity against human SMMC-7721 cells assessed as cell growth inhibition. Type of assay: functional, cell-based.
A further assay concerns P388. The experiment in a line: Cytotoxicity against mouse P388 cells assessed as cell growth inhibition by MTT assay. Type of assay: functional, cell-based.
Assay [2] relates to HL-60. The experiment in a line: Antiproliferative activity against human HL-60 cells assessed as cell growth inhibition by MTT assay. Type of assay: functional, cell-based.
Assay [3] concerns Trypanosoma brucei brucei. The assay can be described thus: Antitrypanosomal activity against Trypanosoma brucei brucei GUTat3.1 assessed as parasite growth inhibition measured after 72 hrs by alamar blue staining based analysis. Type of assay: functional, organism-based. The note with it: GUTat3.1, 72 h. (The colour change of resazurin is a common sign of viable cells or microbes.)

The subject of a further assay is HCT-8. The experiment in a line: Cytotoxicity against human HCT-8 cells assessed as cell growth inhibition by MTT assay. Type of assay: functional, cell-based.
The next assay concerns A549. The assay can be described thus: Antiproliferative activity against human A549 cells assessed as cell growth inhibition by MTT assay. Type of assay: functional, cell-based.
In a further assay the test system is A2780. The assay can be described thus: Cytotoxicity against human A2780 cells assessed as cell growth inhibition by MTT assay. Type of assay: functional, cell-based.
A further assay deals with Bel-7402. The experiment in a line: Cytotoxicity against human Bel-7402 cells assessed as cell growth inhibition by MTT assay. Type of assay: functional, cell-based.
A further assay has as its system Proteus vulgaris. The experiment in a line: Antibacterial activity against Proteus vulgaris MTCC 7299 assessed as bacterial growth inhibition incubated for 48 to 72 hrs by agar plate diffusion assay. Type of assay: functional. The settings on record: time 48-72 hrs.
Another assay deals with Candida albicans. The experiment in a line: Antifungal activity against Candida albicans assessed as fungal growth inhibition. Type of assay: functional.
Assay [4] concerns K562. The assay can be described thus: Cytotoxicity against human K562 cells assessed as inhibition of cell growth by MTT assay. Type of assay: functional, cell-based.
The target in a further assay is 20S proteasome. The experiment in a line: Inhibition of 20S proteasome (unknown origin) by fluorescence based assay. Type of assay: protein-complex assay, Homo sapiens.
Assay [5] relates to ACHN. The assay can be described thus: Antiproliferative activity against human ACHN cells assessed as cell growth inhibition. Type of assay: functional, cell-based.
The test system of assay [6] is K562. The assay can be described thus: Antiproliferative activity against human K562 cells assessed as cell growth inhibition measured after 72 hrs by CCK-8 assay. Type of assay: functional, cell-based. The settings on record: K562, 72 h.
Assay [7] deals with HL-60. The experiment in a line: Antiproliferative activity against human HL-60 cells assessed as cell growth inhibition measured after 72 hrs by CCK-8 assay. Type of assay: functional, cell-based. The note with it: HL-60, 72 h.
Assay [8] deals with ACHN. The assay can be described thus: Antiproliferative activity against human ACHN cells assessed as cell growth inhibition measured after 72 hrs by CCK-8 assay. Type of assay: functional, cell-based.
The test system of another assay is Salmonella enterica. The assay can be described thus: Antibacterial activity against Salmonella enterica ATCC 6539 assessed as bacterial cell growth inhibition measured after 24 hrs by Bactiter-glo assay. Type of assay: functional.
A further assay has as its system Influenza A virus. The assay can be described thus: Antiviral activity against Influenza A virus H1N1 by CPE inhibition assay. Type of assay: functional, organism-based.
For assay [9], the system named is Pseudopestalotiopsis theae. The assay can be described thus: Antifungal activity against Pestalotiopsis theae assessed as fungal cell growth inhibition. Type of assay: functional. The settings on record: read-out: ED50 (the source's name).
The test system of the next assay is OVCAR-3. The assay can be described thus: Cytotoxicity against human OVCAR-3 cells assessed as cell growth inhibition. Type of assay: functional.
The subject of another assay is HCT-116. The experiment in a line: Cytotoxicity against human HCT-116 cells assessed as cell growth inhibition. Type of assay: functional.
For another assay, the system named is HOP-92. The experiment in a line: Cytotoxicity against human HOP-92 cells assessed as cell growth inhibition. Type of assay: functional.
For another assay, the system named is LOX IMVI. The assay can be described thus: Cytotoxicity against human LOX IMVI cells assessed as cell growth inhibition. Type of assay: functional.
Another assay deals with PC-3. The assay can be described thus: Cytotoxicity against human PC-3 cells assessed as cell growth inhibition. Type of assay: functional.

The structures appear in SMILES notation. pIC50: −log10 of the molar value. In brackets after ≈: the same amount, converted by molar mass.

Take `CCCCCC[C@@H](O)[C@@H]1C(=O)O[C@H](C)[C@@H](O)/C=C/C=C/C=C/C=C/C=C(\C)[C@@H](O)[C@H](O)[C@@H](O)C[C@H](O)C[C@H](O)C[C@@H](O)C[C@@H](O)C[C@@H]1O`: the figures for the LC50 in the assay with Meloidogyne javanica and in the assay with Meloidogyne incognita were 7.83 µg/mL (≈ 11.4 µM) and 7.64 µg/mL (≈ 11.2 µM), respectively. By pIC50 is commonly meant −log10 of the IC50, conventionally taken in molar units. For `O=C1CCC(=O)O[C@@H]2[C@@H](O)[C@H](O)[C@@H](COC(=O)CCC(=O)O[C@@H]3[C@@H](O)[C@H](O)[C@@H](CO1)O[C@@H]3O)O[C@@H]2O`, the pIC50 with HeLa was 4.43; in [1], 4.32. As a reminder, the IC50 is the concentration that gives 50% inhibition. Consider `Cc1ccc(OC(=O)CCN)cc1`, for which, in the assay with SMMC-7721, the IC50 is 22 µg/mL (≈ 123 µM). Turning to `C=CC(C)(C)c1[nH]c2ccccc2c1/C=C1\NC(=O)C2(CC(C)C=CC2CCc2c(O)cc(CC=C(C)C)c(O)c2C=O)NC1=O` (stereo not drawn), the pIC50 in the assay with P388 was 5.74; in the assay on HL-60 [2], 5.32.

Turning to `CCCC1C(O)=C2CCC3(C)CC(C)C(O3)C(C)C(O)C(C)C(=O)CC1OC2=O` (stereo not drawn), the IC50 in [3] was 2.4 µg/mL (≈ 5.87 µM). Regarding `C=C1CC[C@H]2C(C)(C)CCC[C@]2(C)[C@H]1C[C@@]12C[C@H]3C(=O)N(C)[C@@H](C(C)C)C(=O)N3[C@@H]1Nc1ccccc12`, the pIC50 in the assay with HCT-8, in the assay on A549, in the assay on A2780 and in the assay on Bel-7402 was 6.00 throughout.

The term MIC denotes the least concentration at which growth counts as inhibited. Regarding `CCCOC(=O)c1ccccc1C(=O)OC(C)CC` (stereo not drawn), the minimum inhibitory concentration (MIC) with Proteus vulgaris came out at 4 µg/mL (≈ 15.1 µM). For the compound `CCC(C)C1OC(=O)/C=C/C=C/C=C/C=C/C=C/CC(O)CC(O)CC(O)CC(O)CC(O)CC(O)CC(O)CC(O)/C=C/C1C` (stereo not drawn), the MIC in the assay on Candida albicans was 25 µM (≈ 16.3 µg/mL). Regarding `C[C@@H]1OC(=O)[C@@H](O)[C@@H](C)OC(=O)[C@H](C)[C@H]1O`, the pIC50 in the assay with K562 [4] was 5.87. At 20S proteasome, `CC(C)[C@H](O)[C@@]12NC(=O)[C@H](C)[C@@H]1OC2=O` [OMURALIDE] had a pIC50 of 7.31.

On to `COc1nc(C/C=C(\C)C/C(C)=C/C(C)=C/[C@@H](C)[C@@H](O)/C(C)=C/C(C)=O)cc(O)c1OC`, for which the pIC50 in the assay on ACHN [5] is 7.70.

Regarding `C/C=C/[C@H](O[C@H]1O[C@@H](CO)[C@H](O)[C@@H](O)[C@@H]1O)[C@H](C)/C=C(C)/C=C/C/C(C)=C/Cc1nc(OC)c(OC)c(O)c1C`, the pIC50 with K562 [6] is 5.26; in the assay with HL-60 [7], 5.89; with ACHN [8], 5.64.

In the case of `Cc1cc2c3c(c1C)C(C)(C)CCn3c(=O)c(=O)n2C[C@H](O)[C@H](O)[C@H](O)CO`, in the assay on Salmonella enterica, the MIC stood at 12.4 µM (≈ 4.87 µg/mL).

Compound `CC[C@@H](C)C1=C2NC(=O)[C@@](O)(C/C(=C\C=O)OC)C(=O)N2[C@H](C(C)C)C(=O)N1` had a pIC50 in the assay with Influenza A virus of 4.30. As for `CC(=C\C(=O)O)/C=C(\C)CC(C)/C=C/CC[C@H]1OC(=O)[C@@H]1CO` (stereo partly drawn), the EC50 in [9] was determined as 38.1 µg/mL (≈ 118 µM). One may read the GI50 as the concentration that inhibits growth by half. `C[C@@]12OC(=O)[C@]1([C@@H](O)[C@@H]1C=CCCC1)NC(=O)[C@@H]2CCCl` [MARIZOMIB]: the GI50 with OVCAR-3 was below 11 nM; in the assay with HCT-116 it was 35 nM; with HOP-92, below 11 nM; in the assay with LOX IMVI, below 11 nM; in the assay on PC-3, below 11 nM.
